Assay: xn = mol fraction of the nth substance listed
Details: 101 kPa, Liquid

CCCCCCCCCCO [decan-1-ol] + CCCCCCCCO
Details | mass density [kg/m3] | viscosity [mPa·s]
283.15 K, x2 = 0 | 836.6 | 22.06
283.15 K, x2 = 0.0995 | 836.1 | 21.14
283.15 K, x2 = 0.1998 | 835.7 | 20.23
283.15 K, x2 = 0.3007 | 835.3 | 19.39
283.15 K, x2 = 0.4001 | 834.9 | 18.46
283.15 K, x2 = 0.4996 | 834.5 | 17.59
283.15 K, x2 = 0.5988 | 834 | 16.69
283.15 K, x2 = 0.6998 | 833.6 | 15.82
283.15 K, x2 = 0.8001 | 833.1 | 15.11
283.15 K, x2 = 0.9 | 832.8 | 14.2
288.15 K, x2 = 0 | 833.3 | 17.99
288.15 K, x2 = 0.0995 | 832.7 | 17.18
288.15 K, x2 = 0.1998 | 832.3 | 16.53
288.15 K, x2 = 0.3007 | 831.9 | 15.64
288.15 K, x2 = 0.4001 | 831.5 | 15.11
288.15 K, x2 = 0.4996 | 831.1 | 14.23
288.15 K, x2 = 0.5988 | 830.6 | 13.71
288.15 K, x2 = 0.6998 | 830.2 | 13.02
288.15 K, x2 = 0.8001 | 829.7 | 12.25
288.15 K, x2 = 0.9 | 829.4 | 11.75
293.15 K, x2 = 0 | 829.9 | 14.39
293.15 K, x2 = 0.0995 | 829.3 | 13.84
293.15 K, x2 = 0.1998 | 828.9 | 13.31
293.15 K, x2 = 0.3007 | 828.5 | 12.67
293.15 K, x2 = 0.4001 | 828.1 | 12.26
293.15 K, x2 = 0.4996 | 827.7 | 11.59
293.15 K, x2 = 0.5988 | 827.2 | 11.05
293.15 K, x2 = 0.6998 | 826.9 | 10.32
293.15 K, x2 = 0.8001 | 826.3 | 9.75
293.15 K, x2 = 0.9 | 825.9 | 9.008
298.15 K, x2 = 0 | 826.5 | 11.74
298.15 K, x2 = 0.0995 | 825.9 | 11.31
298.15 K, x2 = 0.1998 | 825.5 | 10.94
298.15 K, x2 = 0.3007 | 825.1 | 10.53
298.15 K, x2 = 0.4001 | 824.7 | 10.07
298.15 K, x2 = 0.4996 | 824.3 | 9.596
298.15 K, x2 = 0.5988 | 823.8 | 9.244
298.15 K, x2 = 0.6998 | 823.4 | 8.756
298.15 K, x2 = 0.8001 | 822.8 | 8.308
298.15 K, x2 = 0.9 | 822.3 | 7.812
303.15 K, x2 = 0 | 823 | 9.561
303.15 K, x2 = 0.0995 | 822.5 | 9.231
303.15 K, x2 = 0.1998 | 822.1 | 8.924
303.15 K, x2 = 0.3007 | 821.7 | 8.589
303.15 K, x2 = 0.4001 | 821.3 | 8.213
303.15 K, x2 = 0.4996 | 820.8 | 7.898
303.15 K, x2 = 0.5988 | 820.4 | 7.57
303.15 K, x2 = 0.6998 | 820 | 7.259
303.15 K, x2 = 0.8001 | 819.4 | 6.992
303.15 K, x2 = 0.9 | 818.9 | 6.655
308.15 K, x2 = 0 | 819.6 | 8
308.15 K, x2 = 0.0995 | 819.1 | 7.768
308.15 K, x2 = 0.1998 | 818.7 | 7.492
308.15 K, x2 = 0.3007 | 818.3 | 7.211
308.15 K, x2 = 0.4001 | 817.8 | 6.961
308.15 K, x2 = 0.4996 | 817.4 | 6.672
308.15 K, x2 = 0.5988 | 816.9 | 6.389
308.15 K, x2 = 0.6998 | 816.5 | 6.143
308.15 K, x2 = 0.8001 | 815.9 | 5.851
308.15 K, x2 = 0.9 | 815.5 | 5.653
313.15 K, x2 = 0 | 816.3 | 6.831
313.15 K, x2 = 0.0995 | 815.6 | 6.649
313.15 K, x2 = 0.1998 | 815.2 | 6.408
313.15 K, x2 = 0.3007 | 814.8 | 6.189
313.15 K, x2 = 0.4001 | 814.4 | 5.979
313.15 K, x2 = 0.4996 | 813.9 | 5.711
313.15 K, x2 = 0.5988 | 813.5 | 5.513
313.15 K, x2 = 0.6998 | 813 | 5.287
313.15 K, x2 = 0.8001 | 812.4 | 5.057
313.15 K, x2 = 0.9 | 812 | 4.784

Reference: the NIST ThermoML archive (doi:10.1021/je050200w)
